The molecule `CCOC(=O)C(Cc1ccc(OCC=C(c2ccccc2)c2ccncc2)cc1)OCC` (stereo not shown) [Example 29, 2-Ethoxy-3-[4-(3-phenyl-3-pyridin-4-yl-allyloxy)-phenyl]-propionic acid ethyl ester] had a melting point of 84 to 87 °C.

These data come from patent publication US6972294B1, “Compounds, their preparation and use” (Novo Nordisk, A/S, priority 1999, dated 2005).
